Laboratory results taken from US8877980B2, “Phenylboronic acid” (Al-Urdonia Lemudaddat Al-Ajsam Co., priority 2012, dated 2014).
In brackets after ≈: the same amount, converted by molar mass. Read-outs that look alike come from different tables or passages of the source.

Tests used:
MRSA clinical strain [1] = test: Disk diffusion; assay type: cell-based, methicillin resistant S. aureus
MRSA clinical strain [2] = test: Broth microdilution MIC determination; assay type: cell-based, methicillin resistant S. aureus; details: for MIC: Staphylococcus aureus, 24 h
S. aureus ATCC 2592 [3] = test: Disk diffusion; assay type: cell-based
E. coli ATCC 8739 [4] = test: Disk diffusion; assay type: cell-based
Procedure: (§1) The following bacterial strains were used; S. aureus ATCC 29350, E. coli ATCC 8739, and P. aeruginosa ATCC 27853. The cultivation medium for P. aeruginosa and E. coli were tryptone soy Agar (Oxoid, UK), and, 5% defibrinated sheep blood added to columbia blood agar base (Oxoid, UK). The bacterial cultures were aerobically grown at 37° C. for 24 hrs. For antimicrobial testing, the bacterial cultures were prepared by picking colonies from logarithmic phase of growth and suspended in 5 ml of Mueller Hinton broth with suitable supplements. The bacterium inoculum sizes were adjusted to 10^8 CFU/ml for all strains.
(§2) solutions of 2-(bromoacetamido)phenylboronic acid were prepared by gradually dissolving 2-(bromoacetamido)phenylboronic acid to the maximum solubility in 100% DMSO (1 mg/ml). Similarly standard stock solution of Vancomycin and Penicillin (1 mg/ml) were used as positive controls.
(§3) For the disk diffusion assay, bacterial suspensions were prepared to the standard McFarland's (0.5) and subsequently uniformly spread on a solid growth medium in a Petri dish. Sterile paper disks (6 mm in diameter; oxoid, UK) were placed on the surface of each agar plate and were impregnated with 30 μL to a final concentration of 600 ug/ml of each agent to be tested. The plates were incubated for the recommended time periods (18-24 hrs) under appropriate cultivation conditions. Antibacterial activity was determined by measuring an inhibition zone around a disk following the incubation. Disks impregnated with sterile distilled water, DMSO served as negative controls and disks with standard antibiotics Vancomycin and penicillin (Oxoid, UK) served as positive controls. Triplicates at each concentration were performed and the average of the results was taken.

P. aerugionsa ATCC 27853 [5] = test: Disk diffusion; assay type: cell-based; details: P. aeruginosa ATCC 27853
Procedure: as §1, §2, §3

P. aerugionsa ATCC 27853 [6] = test: Broth microdilution MIC determination; assay type: cell-based, P. aeruginosa; details: for MIC: Pseudomonas aeruginosa
Procedure: as §1, §2
For the broth microdilution test, 100 μL of each bacterial suspension in suitable growth medium was added to the wells of a sterile 96-well microtitre plate already containing 100 μL of two-fold serially diluted 2-(bromoacetamido)phenylboronic acid or vancomycin and penicillin in proper growth medium. The final volume in each well was 200 μL. Control wells were prepared with culture medium, bacterial suspension only compound only and DMSO in amounts corresponding to the highest quantity present. […] To indicate cell viability, the presence of a purple color was determined after adding 20 μL/well of 500 ug/ml MTT (3-(4,5-Dimethylthiazol-2-yl-2,5-diphenyltetrazolium bromide, Sigma) and incubated under appropriate cultivation conditions (37° C. for 3 hrs). To determine the formation of formazan by living cells, OD570 was measured by a Microplate Reader (Thermoscientific, Finland) after adding 200 μL/well of a solubilizing solution (a mixture of DMSO:ethanol (1:1)). Positive controls were wells with a bacterial suspension in an appropriate growth medium. Negative controls were wells with growth medium and antimicrobial compound. […]

S. aureus ATCC 2592 [7] = test: Broth microdilution MIC determination; assay type: cell-based; details: Staphylococcus aureus, ATCC2592, 24 h, MTT readout
[8] = Maximum solubility in DMSO (stock solution); assay type: physicochemical; details: 100% DMSO, organic solvent or mixture, thermodynamic from solid
Procedure: as §2

E. coli ATCC 8739 [9] = test: Broth microdilution MIC determination; assay type: cell-based
Procedure: as §1, §2
For the broth microdilution test, 100 μL of each bacterial suspension in suitable growth medium was added to the wells of a sterile 96-well microtitre plate already containing 100 μL of two-fold serially diluted 2-(bromoacetamido)phenylboronic acid or vancomycin and penicillin in proper growth medium. The final volume in each well was 200 μL. Control wells were prepared with culture medium, bacterial suspension only compound only and DMSO in amounts corresponding to the highest quantity present. […]

[10] = Single dose acute toxicity study and LD50 determination; assay type: in vivo, mice; details: mouse, in vivo; acute oral, dissolved in DMSO, BALB/c mice; curve generated
Procedure: (§4) Results of Acute Toxicity of 2-(bromoacetamido)phenylboronic Acid in Balb/c Mice
(§5) • a. […] This effect started 30 minutes post treatment. The activity was recovered after 3 hours post treatment (for survived animals). […] The time of deaths was observed as dose dependent. Mice treated with 150 mg/kg died within 18 hours of 2-(bromoacetamido)phenylboronic acid administration while mice treated with 200 mg/kg died within 4 hours post treatment. • e.

Balb/c Mice = test: as above; assay type: in vivo
Procedure: as §4, §5

CN[C@H](CC(C)C)C(=O)N[C@H]1C(=O)N[C@@H](CC(N)=O)C(=O)N[C@H]2C(=O)N[C@H]3C(=O)N[C@H](C(=O)N[C@H](C(=O)O)c4cc(O)cc(O)c4-c4cc3ccc4O)[C@H](O)c3ccc(c(Cl)c3)Oc3cc2cc(c3O[C@@H]2O[C@H](CO)[C@@H](O)[C@H](O)[C@H]2O[C@H]2C[C@](C)(N)[C@H](O)[C@H](C)O2)Oc2ccc(cc2Cl)[C@H]1O [Vancomycin, reference compound]
Susceptibility category (S/R) beside zone of inhibition (MRSA clinical strain [1]): S
MIC (MRSA clinical strain [2]; MRSA): 0.4 µg/mL (≈ 0.276 µM)
Susceptibility category (S/R) beside zone of inhibition (S. aureus ATCC 2592 [3]): S

CC1(C)S[C@@H]2[C@H](NC(=O)[C@H](N)c3ccccc3)C(=O)N2[C@H]1C(=O)O [Ampicillin, reference compound]
Susceptibility category (S/R) beside zone of inhibition (E. coli ATCC 8739 [4]): S
Susceptibility category (S/R) beside zone of inhibition (P. aerugionsa ATCC 27853 [5]): R
MIC (P. aerugionsa ATCC 27853 [6]; ATCC27853, 24 h): 150 µg/mL (≈ 429 µM)

O=C(CBr)Nc1ccccc1B(O)O [2-(bromoacetamido)phenylboronic acid]
MIC (S. aureus ATCC 2592 [7]): 1.56 µg/mL (≈ 6.05 µM)
solubility [8]: 1000 µg/mL (≈ 3880 µM)
Growth inhibition (statement in words) (E. coli ATCC 8739 [9]; E. coli, general statement of the description, method not named): inhibits the growth
MIC (E. coli ATCC 8739 [9]; Escherichia coli, ATCC8739, E. coli ATCC 8739, 24 h, MTT readout): 75 µg/mL (≈ 291 µM)
Growth inhibition (statement in words) (MRSA clinical strain [2]; MRSA, general statement of the description, method not named): inhibits the growth
MIC (MRSA clinical strain [2]; MRSA clinical strain, MTT readout, read-out: MIC): 1.56 µg/mL (≈ 6.05 µM)
LD50 at 14 days [10]: ~130 mg/kg
% Death/group (Balb/c Mice; 10 mg/kg single oral dose in DMSO): 0%
% Death/group (Balb/c Mice; 50 mg/kg single oral dose in DMSO): 0%
% Death/group (Balb/c Mice; 100 mg/kg single oral dose in DMSO): 0%
Time of death after administration (Balb/c Mice; 150 mg/kg): ≤ 18 h
% Death/group (Balb/c Mice; 150 mg/kg single oral dose in DMSO): 70%
Time of death after administration (Balb/c Mice; 200 mg/kg): ≤ 4 h
% Death/group (Balb/c Mice; 200 mg/kg single oral dose in DMSO): 70%
Behaviour and clinical signs post administration (Balb/c Mice; 10, 50 and 100 mg/kg): behaved normally
Behaviour and clinical signs post administration (Balb/c Mice; 150 and 200 mg/kg): Reduced activity
Start of reduced activity post treatment (Balb/c Mice; 150 and 200 mg/kg): 30 min
Recovery of activity post treatment (Balb/c Mice; 150 and 200 mg/kg, survived animals): 3 h
Doses showing systemic toxicity and causing death (Balb/c Mice; acute oral, dissolved in DMSO, BALB/c mice): above 100 mg/kg
Change in body weights (Balb/c Mice; all groups): No significant change
Gross autopsy (Balb/c Mice; dead mice and all survivors at day 14): did not reveal any significant findings
% Death/gender (Balb/c Mice; females, 10 mg/kg single oral dose in DMSO): 0%
% Death/gender (Balb/c Mice; females, 50 mg/kg single oral dose in DMSO): 0%
% Death/gender (Balb/c Mice; females, 100 mg/kg single oral dose in DMSO): 0%
% Death/gender (Balb/c Mice; females, 150 mg/kg single oral dose in DMSO): 100%
% Death/gender (Balb/c Mice; males, 10 mg/kg single oral dose in DMSO): 0%
% Death/gender (Balb/c Mice; males, 50 mg/kg single oral dose in DMSO): 0%
% Death/gender (Balb/c Mice; males, 100 mg/kg single oral dose in DMSO): 0%
% Death/gender (Balb/c Mice; males, 150 mg/kg single oral dose in DMSO): 40%
% Death/gender (Balb/c Mice; males, 200 mg/kg single oral dose in DMSO): 80%
zone of inhibition at 600 µg/mL (E. coli ATCC 8739 [4]; Escherichia coli, ATCC8739, agent concentration as in row label (ampicillin 20 mg/ml, compound 600 μg/ml)): 16 mm
zone of inhibition at 600 µg/mL (S. aureus ATCC 2592 [3]; Staphylococcus aureus, ATCC2592, agent concentration as in row label (vancomycin 100 μg/ml, compound 600 μg/ml)): 24 mm
Growth inhibition (statement in words) (P. aerugionsa ATCC 27853 [6]; P. aeruginosa, general statement of the description, method not named): inhibits the growth
MIC (P. aerugionsa ATCC 27853 [6]; ATCC27853, P. aeruginosa ATCC 27853, 24 h, MTT readout, read-out: MIC): > 600 µg/mL
